Square brackets hold non-standard residues; d marks the D form. Peptide text beside a SMILES is read from it. Nle = CCCC[C@H](N)C(=O)O
Columns and labels:
[1] = system: SK-Hep1 cells; assay: G0/G1 cell cycle arrest by BrdU labeling, flow cytometry; assay type: cell-based; settings: 5 μM CI-1 for 17 hours, 2 hour pulse; DMF control 34%
Method: (§1) In order to determine any increases in p53 function in response to calpain inhibitor 1, the quantity of cells undergoing G0/G1 cell cycle arrest in response to CI-1 administration, was assayed by bromodeoxyuridine labeling of cells. Each of the cell lines described in Example 2 above were exposed to a concentration of 0 or 5 μM CI-1 (in DMF) as described in Example 3 above. Cell lines treated with DMF alone or 5 μM final concentration of calpain inhibitor 1 for 17 hours were pulse labeled with a final concentration of 10 μM bromodeoxyuridine (Boehringer Mannheim) for two hours. Cells were harvested for bivariate BrdU/DNA flow cytometric analysis by fixation in 70% ethanol, followed digestion with 0.08% pepsin for 30 minutes at 37 degrees. Cells were centrifuged at 1500 RPM, and 2N HCL was added. Cells were incubated at 37 degrees for 20 minutes, followed by addition of 1M sodium borate. Cells were washed in IFA/tween 20 (0.01 M HEPES, 0.005% sodium azide, 0.5% tween 20, 5% FBS, […]), and anti-BrdU antibody, diluted 1:10 in IFA without tween 20, was added for 30 minutes. Cells were washed in IFA/tween 20, and incubated in IFA/tween 20/RNase for 15 minutes at 37 degrees.
(§2) Cells that had incorporated BrdU were stained using a FITC conjugated monoclonal antibody to BrdU (commercially available from Becton-Dickinson) and detected by FACS analysis on a FACScan FACS machine (commercially available from Becton Dickinson).

[2] = system: RKO cells; assay: as above; assay type: cell-based; settings: 5 μM CI-1 for 17 hours, 2 hour pulse; DMF control 47%
Method: as §1, §2

[3] = system: DLD1 cells; assay: as above; assay type: cell-based; settings: 5 μM CI-1 for 17 hours, 2 hour pulse; 35% without calpain treatment
Method: as §1, §2

[4] = system: HLF cells; assay: as above; assay type: cell-based; settings: 5 μM CI-1 for 17 hours, 2 hour pulse; DMF control 42%
Method: as §1, §2

[5] = system: JC (mouse mammary carcinoma, p53 mutant) cells; assay: Rodent cancer model, flank tumors; assay type: in vivo, mice; settings: calpain inhibitor alone, 60 mg/kg intraperitoneal
Method: The in vitro results presented above were confirmed in a rodent cancer model. Briefly, healthy immune competent mice were injected with JC (mouse mammary carcinoma, p53 mutant) cells and tumors were permitted to form. This is a particularly rigorous model as JC cells are particularly difficult to infect and the mouse is an immunocompetent mouse capable of producing an immune response to the human adenovirus and/or the human p53 transgene. After 2 weeks, flank tumors were present in all animals. Calpain inhibitor was administered via intraperitoneal injection to a concentration of approximately 60 mg/kg approximately 24 hours prior to administration of the recombinant rAd-p53 virus. Appropriate control viruses and solutions were employed. The mice were injected with 1×10^10 particles of rAd-p53 per injection intratumorally in combination with intraperitoneally injected CI-1 at a concentration of 60 mg/kg for a period of 5 days, 2 days off and then for 5 more days. Tumor growth/regression was evaluated at Day 4, Day 8 and Day 11 post-treatment (FIGS. 12 A,B and C respectively). In all instances the rate of decrease in tumor growth was at least 40% reduction in fold increase in tumor volume in mice treated with calpain inhibitor 1 in addition to FTCB, in comparison with the mice treated with the FTCB vector alone.

[6] = system: p53 levels in cell lines with endogenous wildtype and mutated p53 status; assay: Western blot of p53 levels; assay type: cell-based; settings: in response to calpain inhibitor 1 (FIG. 5)

SMILES: CCCC[C@@H](C=O)NC(=O)[C@H](CC(C)C)NC(=O)[C@H](CC(C)C)NC(C)=O [CI-1, N-acetyl-leu-leu-norleucinal] (Ac-Leu-Leu-[Nle]-aldehyde)
- cells incorporating BrdU label [1]: 8%
- cells incorporating BrdU label [2]: 16%
- cells incorporating BrdU [3]: about 25%
- cells incorporating BrdU label [4]: 35%
- antitumor effects [5]: significant antitumor effects
- increase in p53 levels [6]: 2–5 ×

From US7001770B1, “Calpain inhibitors and their applications” (priority 1998, dated 2006)
